Earlier results on 1 molecule are cited in paper PMC9099121, “Population pharmacokinetic and exposure‐response analyses from ALTA‐1L: Model‐based analyses supporting the brigatinib dose in ALK‐positive NSCLC” (Clinical and Translational Science, 2022).

Molecules are shown by their SMILES.

The subject of the data set is ALK-rearranged advanced NSCLC. Also noted: method as in PMID 31020351. The note with it: time-dependent exposure metric; 95% CI: 0.92–1.17; nonsignificant; cited from earlier work.

Consider `Cc1cc(Nc2ncc(Cl)c(Nc3ccccc3S(=O)(=O)C(C)C)n2)c(OC(C)C)cc1C1CCNCC1` [ceritinib], for which the “HR, exposure versus risk of disease progression” value is listed as 1.04.
